Source: article PMC2745609 (Journal of medicinal chemistry, 2009)

How the values were obtained:
[1] = molecular target: HIV-1 protease (Human immunodeficiency virus type 1 group M subtype B, UniProt P04585); assay: HIV-1 protease enzyme inhibition; type: biochemical; conditions: for fold improvement of enzyme Ki over 17a: relative to 17a
[2] = system: HIV-1lai; assay: Antiviral activity in MT-2 human T-lymphoid cells exposed to HIV-1LAI, MTT assay; type: cell-based; conditions: for IC50: Human immunodeficiency virus 1, MT2, in Homo sapiens
[3] = system: HIV-1ERS104pre (wild-type); assay: Anti-HIV activity in PHA-PBM, p24 Gag production, wild-type clinical isolate; type: cell-based; conditions: Human immunodeficiency virus 1, PBMC, read-out: IC50 against HIV-1ERS104pre

Row | SMILES | IC50 [2] | IC50 [3] | also measured
1 | COc1ccc(S(=O)(=O)N(C[C@@H]2CCC(=O)N2)C[C@@H](O)[C@H](Cc2ccccc2)NC(=O)O[C@H]2CO[C@H]3OCC[C@H]32)cc1 [Inhibitor 17a, (3R,3aS,6aR)-Hexahydrofuro[2,3-b]furan-3-yl(2S,3R)-3-hydroxy-4-(4-methoxy-N-(((S)-5-oxopyrrolidin-2-yl)methyl)phenylsulfonamido)-1-phenylbutan-2-yl-carbamate] |  |  | Ki ([1]; Ki (nM), enzyme inhibitory potency): 1 nM
2 | COc1ccc(S(=O)(=O)N(C[C@@H]2CCC(=O)N2)C[C@@H](O)[C@H](Cc2ccccc2)NC(=O)O[C@@H]2C[C@@H]3CCO[C@@H]3C2)cc1 [Inhibitor 17b, (3aS,5R,6aR)-Hexahydro-2H–cyclopenta[b]furan-5-yl-(2S,3R)-3-hydroxy-4-(4-methoxy-N-(((S)-5-oxopyrrolidin-2-yl)methyl)phenylsulfonamido)-1-phenylbutan-2-ylcarbamate] |  |  | fold improvement of enzyme Ki over 17a [1]: 3 fold
3 | Nc1ccc(S(=O)(=O)N(C[C@@H]2CCC(=O)N2)C[C@@H](O)[C@H](Cc2ccccc2)NC(=O)O[C@H]2CO[C@H]3OCC[C@H]32)cc1 [Inhibitor 18a, (3R,3aS,6aR)-Hexahydrofuro[2,3-b]furan-3-yl(2S,3R)-4-(4-amino-N-(((S)-5-oxopyrrolidin-2-yl)methyl)phenylsulfonamido)-3-hydroxy-1-phenylbutan-2-ylcarbamate] | > 1000 nM |  | 
4 | COc1ccc(S(=O)(=O)N(C[C@H]2CCC(=O)N2)C[C@@H](O)[C@H](Cc2ccccc2)NC(=O)O[C@H]2CO[C@H]3OCC[C@H]32)cc1 [Inhibitor 19a, (3R,3aS,6aR)-Hexahydrofuro[2,3-b]furan-3-yl(2S,3R)-3-hydroxy-4-(4-methoxy-N-(((R)-5-oxopyrrolidin-2-yl)methyl)phenylsulfonamido)-1-phenylbutan-2ylcarbamate] |  |  | fold improvement of enzyme Ki over 17a [1]: 10 fold
5 | COc1ccc(S(=O)(=O)N(C[C@H]2CCC(=O)N2)C[C@@H](O)[C@H](Cc2ccccc2)NC(=O)O[C@@H]2C[C@@H]3CCO[C@@H]3C2)cc1 [Inhibitor 19b, (3aS,5R,6aR)-Hexahydro-2H–cyclopenta[b]furan-5-yl-(2S,3R)-3-hydroxy-4-(4-methoxy-N-(((R)-5-oxopyrrolidin-2-yl)methyl)phenylsulfonamido)-1-phenylbutan-2-ylcarbamate] |  | 28 nM | fold improvement in antiviral activity relative to 17b ([2]; relative to epimeric (S)-pyrrolidinone derivative 17b): 10 fold
6 | Nc1ccc(S(=O)(=O)N(C[C@@H]2COC(=O)N2)C[C@@H](O)[C@H](Cc2ccccc2)NC(=O)O[C@H]2CO[C@H]3OCC[C@H]32)cc1 [Inhibitor 30, (3R,3aS,6aR)-hexahydrofuro[2,3-b]furan-3-yl-(2S,3R)-4-(4-amino-N-(((R)-2-oxooxazolidin-4-yl)methyl)phenylsulfonamido)-3-hydroxy-1-phenylbutan-2-ylcarbamate] | > 1000 nM |  | 
7 | CC(C)CN(C[C@@H](O)[C@H](Cc1ccccc1)NC(=O)O[C@H]1CCOC1)S(=O)(=O)c1ccc(N)cc1 [amprenavir, reference compound] | 30 nM | 25 nM | 
8 | CC(C)(C)NC(=O)[C@@H]1CN(Cc2cccnc2)CCN1C[C@@H](O)C[C@@H](Cc1ccccc1)C(=O)N[C@H]1c2ccccc2C[C@H]1O [indinavir, reference compound] | 30 nM | 28 nM | 
9 | CC(C)(C)NC(=O)[C@@H]1C[C@@H]2CCCC[C@@H]2CN1C[C@@H](O)[C@H](Cc1ccccc1)NC(=O)[C@H](CC(N)=O)NC(=O)c1ccc2ccccc2n1 [saquinavir, reference compound] | 15 nM |  | 
